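Five concentrations, 48 hours, 96-well plates. The concentration for 50% growth inhibition is given as GI50. TGI: concentration producing complete growth inhibition.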
Legend:
Assay in all cases: DTP human tumour cell line panel, 48 h
ACHN renal = tested on: ACHN renal
CAKI-1 renal = tested on: CAKI-1 renal
HCT-116 colon = tested on: HCT-116 colon
NCI-H460 lung = tested on: NCI-H460 lung
OVCAR-5 ovarian = tested on: OVCAR-5 ovarian
RPMI-8226 leukemia = tested on: RPMI-8226 leukemia
SK-MEL-2 melanoma = tested on: SK-MEL-2 melanoma
SNB-75 CNS = tested on: SNB-75 CNS
HOP-92 NSCLC = tested on: HOP-92 NSCLC
HS 578T breast = tested on: HS 578T breast

Row | Structure (SMILES) | TGI (ACHN renal) [µM] | TGI (CAKI-1 renal) [µM] | TGI (HCT-116 colon) [µM] | TGI (NCI-H460 lung) [µM] | TGI (OVCAR-5 ovarian) [µM] | TGI (RPMI-8226 leukemia) [µM] | TGI (SK-MEL-2 melanoma) [µM] | TGI (SNB-75 CNS) [µM] | GI50 (ACHN renal) [µM] | GI50 (CAKI-1 renal) [µM] | GI50 (HCT-116 colon) [µM] | GI50 (HOP-92 NSCLC) [µM] | TGI (HOP-92 NSCLC) [µM] | GI50 (HS 578T breast) [µM] | TGI (HS 578T breast) [µM] | GI50 (NCI-H460 lung) [µM] | GI50 (OVCAR-5 ovarian) [µM] | GI50 (SK-MEL-2 melanoma) [µM] | GI50 (SNB-75 CNS) [µM] | GI50 (RPMI-8226 leukemia) [µM]
1 | Cc1[nH]c2ccccc2c1/C=C/c1c(C)[nH]c2ccccc12 | > 100 | > 100 | > 100 | > 100 | > 100 | > 100 | > 100 | > 100 | – | – | – | – | – | – | – | – | – | – | – | –
2 | Nc1ncc(-c2ccc3ncnc(N4CCc5cc(F)c(Cl)cc54)c3c2)cc1C=O | > 100 | > 26.2 | > 100 | > 100 | > 100 | – | 6.05 | 2.77 | 0.638 | 0.845 | 2.29 | 0.149 | 1.46 | 0.369 | 3.06 | 0.814 | 0.867 | 1.59 | 0.191 | –
3 | Nc1nc2c(ncn2C2OC(CO)C(O)C2O)c(=O)o1 (configuration not stated) | > 100 | > 100 | > 100 | > 100 | > 100 | > 100 | > 100 | > 100 | – | – | – | – | > 100 | – | – | – | – | – | – | –
4 | CC1CN1c1c(C(=O)/C=C/c2ccc(F)cc2)c(-c2ccccc2)nn(C)c1=O (configuration not stated) | 36.3 | – | 27.3 | 36.3 | 25.2 | 32.2 | 37.9 | 28.7 | – | – | – | – | 23.2 | – | – | – | – | – | – | –
5 | Cc1cc(C)c([O-])c(-[n+]2c(-c3ccccc3)cc(-c3ccccc3)cc2-c2ccccc2)c1 | 16.6 | 22.1 | 10.9 | 15.8 | 18.4 | – | 10.2 | 17.5 | – | – | – | – | 5.48 | – | – | – | – | – | – | –
6 | COc1ccc(N=Nc2c(-c3ccccc3)nn(C(=O)CC(=O)Nc3ccc(OC)cc3)c2-c2ccccc2)cc1 | > 100 | > 100 | > 100 | > 100 | > 100 | > 100 | > 100 | 37.9 | – | – | – | – | 50 | – | – | – | – | – | – | –
7 | COC1(OC)CCC2(C)OC(c3ccccc3)C1O2 (configuration not stated) | > 100 | > 100 | > 100 | > 100 | > 100 | > 100 | > 100 | > 100 | – | – | – | – | – | – | – | – | – | – | – | –
8 | CC1(C)CCC2(C(=O)O)C(O)CC3(C)C(=CCC4C5(C)CCC(OC6OCC(O)C(O)C6OC6OCC(O)C(O)C6OC6OCC(O)C(OC7OC(CO)C(O)C(O)C7O)C6O)C(C)(C)C5CCC43C)C2C1 (configuration not stated) | > 100 | > 100 | > 100 | > 100 | > 100 | – | 76.3 | 40.1 | – | – | – | – | 82.7 | – | > 100 | – | – | – | – | –
9 | CN1C(=O)[C@@H](CC2CCCC2)N(C2CCCC2)c2nc(Nc3cc(Cl)c(O)c(Cl)c3)ncc21 | > 100 | > 100 | 30.4 | 90.3 | > 100 | 49 | – | – | 18.7 | 23.1 | 13.1 | 13.6 | 66.7 | 21.6 | > 100 | 23.5 | 27.7 | – | – | 10.4
10 | CC(=O)CCC[C@@H](C)[C@@H]1O[C@H]([C@@]2(C)CCC(=O)O2)CC2[C@H]1OC(=O)C21CC1 (some centres not stated) | > 100 | > 100 | > 100 | > 100 | > 100 | > 100 | > 100 | > 100 | > 100 | 61.2 | > 100 | > 100 | > 100 | – | – | 39.7 | > 100 | > 100 | > 100 | > 100
11 | CN(C)C/C=C/C(=O)Nc1ccc(C(=O)Nc2cccc(Nc3ncc(Cl)c(-c4c[nH]c5ccccc45)n3)c2)cc1 | – | 0.686 | – | 0.904 | – | – | 0.0682 | 0.101 | 0.0957 | 0.0607 | < 0.0131 | – | – | 0.0363 | 0.195 | 0.265 | 0.0531 | 0.021 | 0.0316 | –
12 | COC(=O)C1=C(C)N(NC(N)=O)C2(N)N(NC(N)=O)C(C)=C(C(=O)OC)C12C#N (configuration not stated) | > 100 | > 100 | > 100 | > 100 | > 100 | > 100 | > 100 | – | – | – | – | – | > 100 | – | – | – | – | – | – | –
13 | CN(C)CC1CCCC/C1=N\OC(=O)c1ccccc1 (configuration not stated) | > 100 | > 100 | > 100 | > 100 | > 100 | > 100 | > 100 | > 100 | – | – | – | – | > 100 | – | – | – | – | – | – | –
14 | COc1ccc(C(=O)C(c2ccc(OC)cc2)C2(O)C(=O)Nc3c(Cl)cc(Cl)cc32)cc1 (configuration not stated) | 61.2 | 49.6 | – | 49.9 | 40.9 | 33.6 | 31.5 | 58.6 | – | – | – | – | 33.2 | – | – | – | – | – | – | –
15 | CC(C)(C)c1cc(Cc2ccc(S(C)(=O)=O)cc2)c(O)c(C(C)(C)C)c1 | 26.6 | 29.8 | 27 | 30.5 | 27.4 | 25.8 | 30.4 | 28 | – | – | – | – | – | – | – | – | – | – | – | –
16 | CC(=O)NNc1nc(C)c(C(=O)/C=C/c2ccc(N(C)C)cc2)s1 | > 100 | > 100 | – | > 100 | > 100 | > 100 | > 100 | > 100 | – | – | – | – | > 100 | – | – | – | – | – | – | –
17 | O=C1CC[C@@H](S(=O)(=O)c2ccccc2)[C@H](/C=C/c2ccccc2)O1 | > 100 | – | > 100 | > 100 | > 100 | > 100 | – | > 100 | – | – | – | – | – | – | – | – | – | – | – | –
18 | Oc1c(Cl)cc(Cl)c(Cl)c1Cc1c(O)c(Cl)cc(Cl)c1Cl | 31.3 | 7.36 | 10.2 | 12.5 | 19.1 | – | 3.48 | 10.6 | 2.27 | 0.525 | 0.41 | 0.274 | 0.682 | 1.03 | 51.3 | 0.534 | 6.14 | 0.497 | 1.65 | –
19 | Cc1c(Br)c(Br)c2c3c1nc(N1CCNCC1)n3CCC2 | 2.71 | 3.05 | 3.19 | 3.22 | 3.54 | – | 4.06 | 4.1 | 1.39 | 1.45 | 1.73 | 0.0744 | 1.12 | 2.45 | 6.5 | 1.7 | 1.72 | 1.95 | 1.96 | –

Source: PubChem BioAssay (NCI)
